In one test the test system is MIAPaCa-2. The test can be described thus: Antiproliferation MTS assay, pancreatic cancer cells. As to conditions: Homo sapiens. It counts as cell-based.
The next test concerns BXPC-3. The test is described as above. It counts as cell-based. As to conditions: Homo sapiens, BXPC-3, as reported in Gaisina et al. (2009) J. Med. Chem. 52(7), 1853-1863.
The subject of a further test is HupT3. The description is as above. It counts as cell-based. As to conditions: Homo sapiens.
In test [1] the test system is pancreatic cancer cell lines. The following applies: BXPC3, HupT3 and MiaPaCa-2; Ougolkov et al. (2007) Blood 110: 735-742; cited from earlier work.
Test [2] deals with T1, recombinant human His6-GSK-3β (Homo sapiens, UniProt P49841).
T1 construct: His6; purchased EMD Biosciences
T1 sequence (P49841 whole entry): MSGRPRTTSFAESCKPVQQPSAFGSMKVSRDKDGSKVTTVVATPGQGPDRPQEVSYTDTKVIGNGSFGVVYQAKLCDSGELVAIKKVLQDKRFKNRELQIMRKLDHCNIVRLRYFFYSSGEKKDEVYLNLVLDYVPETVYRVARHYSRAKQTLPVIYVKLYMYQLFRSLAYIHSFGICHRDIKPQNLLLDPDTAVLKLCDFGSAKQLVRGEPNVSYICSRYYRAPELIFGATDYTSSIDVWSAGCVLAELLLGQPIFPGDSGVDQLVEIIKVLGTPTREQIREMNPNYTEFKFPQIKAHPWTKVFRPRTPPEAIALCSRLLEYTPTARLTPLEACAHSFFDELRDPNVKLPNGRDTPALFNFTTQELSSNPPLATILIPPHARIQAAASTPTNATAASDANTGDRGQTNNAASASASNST
Put plainly: GSK-3β kinase assay, [γ32P] transfer to primed glycogen synthase peptide.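 Note: phosphate incorporation quantified by liquid scintillation counting of the filters.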 It counts as biochemical. The following applies: 10 μM ATP; 10 μM pGSM peptide; 30 minutes at 30° C.; read-out: IC50 (nM), GSK-3β inhibition.

For a further test, the target named is CDK2 (Homo sapiens, UniProt P24941). The test can be described thus: Inhibition of various kinases (% inhibition). Type of test: biochemical. The text has this:
(§1) Additional examples of selectivity are illustrated in Table 4.

The target in another test is GSK3α (Homo sapiens, UniProt P49840). The test can be described thus: Inhibition of various kinases (% inhibition). Type of test: biochemical.
Chain of GSK3α (P49840 whole entry, species assumed): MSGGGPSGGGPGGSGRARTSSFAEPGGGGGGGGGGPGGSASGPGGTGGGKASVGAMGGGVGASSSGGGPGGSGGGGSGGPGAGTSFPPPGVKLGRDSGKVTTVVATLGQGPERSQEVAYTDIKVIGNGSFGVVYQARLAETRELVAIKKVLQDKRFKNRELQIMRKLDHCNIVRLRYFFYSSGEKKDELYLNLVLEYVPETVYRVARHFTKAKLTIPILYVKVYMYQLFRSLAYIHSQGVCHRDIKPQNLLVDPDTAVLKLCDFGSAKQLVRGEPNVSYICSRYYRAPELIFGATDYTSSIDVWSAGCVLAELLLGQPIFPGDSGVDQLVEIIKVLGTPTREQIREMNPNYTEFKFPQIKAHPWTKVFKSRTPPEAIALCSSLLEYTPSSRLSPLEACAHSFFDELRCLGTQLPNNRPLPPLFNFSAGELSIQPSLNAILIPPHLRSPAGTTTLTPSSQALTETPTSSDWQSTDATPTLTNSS
From the text: as §1

The next test has as its target T2, PDK1 (Homo sapiens, UniProt O15530).
T2 sequence (O15530 1-556): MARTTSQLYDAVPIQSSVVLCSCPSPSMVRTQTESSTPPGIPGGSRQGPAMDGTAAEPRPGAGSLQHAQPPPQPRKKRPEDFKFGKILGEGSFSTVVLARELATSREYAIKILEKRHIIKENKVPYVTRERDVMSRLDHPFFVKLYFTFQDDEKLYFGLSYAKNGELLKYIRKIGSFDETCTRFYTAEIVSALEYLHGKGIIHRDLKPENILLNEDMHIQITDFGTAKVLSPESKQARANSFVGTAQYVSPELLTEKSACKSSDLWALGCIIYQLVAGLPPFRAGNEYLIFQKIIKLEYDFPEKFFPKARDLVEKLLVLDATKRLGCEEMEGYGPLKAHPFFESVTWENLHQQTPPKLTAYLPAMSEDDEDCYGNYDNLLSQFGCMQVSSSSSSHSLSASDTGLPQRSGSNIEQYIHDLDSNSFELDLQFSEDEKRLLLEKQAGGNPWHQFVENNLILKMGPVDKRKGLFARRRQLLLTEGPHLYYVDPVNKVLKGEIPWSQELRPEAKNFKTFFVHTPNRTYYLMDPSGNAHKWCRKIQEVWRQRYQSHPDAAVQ
Put plainly: Inhibition of various kinases (% inhibition). It counts as biochemical.
From the text: as §1

Another test concerns the target PKCβ2 (Homo sapiens, UniProt P05771). The test can be described thus: Inhibition of various kinases (% inhibition). Type of test: biochemical.
From the text: as §1

A further test relates to GSK-3β. The test can be described thus: GSK-3β activity in cells by glycogen synthase phosphorylation, Western immunoblotting. It counts as cell-based. (In western blotting, separated proteins are transferred to a membrane and probed.)
In a further test the test system is XIAP. The test can be described thus: NFκB-mediated expression of XIAP in pancreatic cancer cells. Type of test: cell-based.
A further test deals with CDK-2/cyclinE (Homo sapiens, UniProt P24941). The test can be described thus: CDK-2/CyclinE inhibition (Reaction Biology). Type of test: biochemical. As to conditions: tested at Reaction Biology, Inc.
In another test the target is CDK-1/cyclinB (Homo sapiens, UniProt P06493). Put plainly: CDK panel (Reaction Biology). It counts as biochemical. The following applies: tested at Reaction Biology, Inc.
Chain of CDK-1/cyclinB (P06493 whole entry, species assumed): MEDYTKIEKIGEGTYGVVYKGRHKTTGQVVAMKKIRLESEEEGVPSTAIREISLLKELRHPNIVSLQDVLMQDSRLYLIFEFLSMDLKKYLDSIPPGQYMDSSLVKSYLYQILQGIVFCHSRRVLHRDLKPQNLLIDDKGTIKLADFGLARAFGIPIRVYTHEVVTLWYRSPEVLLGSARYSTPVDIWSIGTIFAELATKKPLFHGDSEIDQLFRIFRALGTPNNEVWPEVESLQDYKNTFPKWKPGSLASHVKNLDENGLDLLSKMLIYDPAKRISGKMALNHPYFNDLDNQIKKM
Chain of CDK-1/cyclinB (P14635 whole entry partner, species assumed): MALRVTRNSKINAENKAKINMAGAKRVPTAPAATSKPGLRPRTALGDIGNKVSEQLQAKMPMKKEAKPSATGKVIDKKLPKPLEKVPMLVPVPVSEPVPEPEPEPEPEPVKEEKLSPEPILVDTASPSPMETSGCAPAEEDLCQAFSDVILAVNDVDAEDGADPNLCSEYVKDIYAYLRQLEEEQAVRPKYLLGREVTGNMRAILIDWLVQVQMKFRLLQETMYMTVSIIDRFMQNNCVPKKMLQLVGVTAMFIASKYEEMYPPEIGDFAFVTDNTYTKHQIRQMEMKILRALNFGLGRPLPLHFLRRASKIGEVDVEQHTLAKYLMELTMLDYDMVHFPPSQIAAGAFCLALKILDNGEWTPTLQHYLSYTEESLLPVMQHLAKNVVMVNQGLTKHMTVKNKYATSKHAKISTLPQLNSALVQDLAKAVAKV
A further test addresses CDK-2/cyclinA (Homo sapiens, UniProt P24941). Put plainly: CDK panel (Reaction Biology). Type of test: biochemical. The following applies: tested at Reaction Biology, Inc.
In a further test the target is CDK-4/cyclinD1 (Homo sapiens, UniProt P11802). Put plainly: CDK panel (Reaction Biology). The following applies: tested at Reaction Biology, Inc. Type of test: biochemical.
Chain of CDK-4/cyclinD1 (P11802 whole entry, species assumed): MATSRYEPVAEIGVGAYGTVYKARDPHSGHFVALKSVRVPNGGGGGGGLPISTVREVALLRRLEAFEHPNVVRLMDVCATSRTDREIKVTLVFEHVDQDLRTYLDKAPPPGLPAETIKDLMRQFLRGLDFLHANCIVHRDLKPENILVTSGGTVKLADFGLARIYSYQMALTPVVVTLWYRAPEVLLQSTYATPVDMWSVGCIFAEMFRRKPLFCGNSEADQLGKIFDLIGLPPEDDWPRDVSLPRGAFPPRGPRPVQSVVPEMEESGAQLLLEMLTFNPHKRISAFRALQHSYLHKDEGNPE
Chain of CDK-4/cyclinD1 (P24385 whole entry partner, species assumed): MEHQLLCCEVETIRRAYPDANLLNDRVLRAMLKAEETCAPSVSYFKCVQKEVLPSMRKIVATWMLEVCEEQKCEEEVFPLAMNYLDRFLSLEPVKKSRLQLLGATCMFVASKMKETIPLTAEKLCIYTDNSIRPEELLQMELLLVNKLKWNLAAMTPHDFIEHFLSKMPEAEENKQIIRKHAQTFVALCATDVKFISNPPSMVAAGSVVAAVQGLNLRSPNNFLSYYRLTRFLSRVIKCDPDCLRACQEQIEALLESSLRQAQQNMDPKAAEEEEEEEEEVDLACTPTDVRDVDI
Another test deals with CDK-6/cyclinD3 (Homo sapiens, UniProt Q00534). The test can be described thus: CDK panel (Reaction Biology). It counts as biochemical. As to conditions: tested at Reaction Biology, Inc.
Chain of CDK-6/cyclinD3 (Q00534 whole entry, species assumed): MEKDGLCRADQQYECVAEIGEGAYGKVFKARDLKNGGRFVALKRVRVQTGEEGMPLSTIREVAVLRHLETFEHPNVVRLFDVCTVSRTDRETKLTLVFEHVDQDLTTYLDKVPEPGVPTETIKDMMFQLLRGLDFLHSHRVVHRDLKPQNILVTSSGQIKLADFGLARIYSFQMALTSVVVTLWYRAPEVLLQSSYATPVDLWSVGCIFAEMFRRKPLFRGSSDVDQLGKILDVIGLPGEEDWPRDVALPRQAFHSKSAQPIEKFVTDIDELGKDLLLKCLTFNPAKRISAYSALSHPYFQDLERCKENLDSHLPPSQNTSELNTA
Chain of CDK-6/cyclinD3 (P30281 whole entry partner, species assumed): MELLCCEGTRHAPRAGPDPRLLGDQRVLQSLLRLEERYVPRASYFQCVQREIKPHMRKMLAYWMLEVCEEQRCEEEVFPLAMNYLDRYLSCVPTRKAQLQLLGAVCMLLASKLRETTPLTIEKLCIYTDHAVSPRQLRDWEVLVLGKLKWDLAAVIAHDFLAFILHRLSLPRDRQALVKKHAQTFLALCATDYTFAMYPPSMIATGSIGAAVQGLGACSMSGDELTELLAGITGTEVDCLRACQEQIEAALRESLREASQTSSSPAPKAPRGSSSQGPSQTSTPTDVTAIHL
Another test deals with OVCA432. The test can be described thus: Antiproliferation assay, ovarian cancer cells. It counts as cell-based. As to conditions: ovarian cancer cell proliferation. How it is done: (§2) The pancreatic cancer cell lines BxPc-3, HupT3, MiaPaCa-2, Panc 04.03, and SU86.86 were obtained from ATCC (Rockville, Md.) and were grown in medium (DMEM or RPMI) containing 10% fetal calf serum and L-glutamine. Pancreatic cancer cells were plated out in duplicate into 6-wells of a 96-well microtiter plate at 2.5−4×10^3 cells per well. Four-hours post plating, individual wells were treated with diluent (DMSO) or varying concentrations of commercial compounds, AR-A014418 and SB216763, or the indicated GSK inhibitors of this invention from a concentration of 1 nM to 50 microM. […] The IC50s were calculated using XLfit (IDBS Limited, Guildford, UK).
(§3) Similar antiproliferation assays were performed using ovarian cancer cells. Compound 40 is of particular interest for inhibition of ovarian cancer cell proliferation.

A further test has as its system SKOV3. Put plainly: Antiproliferation assay, ovarian cancer cells. The following applies: Homo sapiens, SK-OV-3; ovarian cancer cell proliferation. It counts as cell-based. The method, then: as §2, §3
Another test concerns C57BL/6J mice. The test can be described thus: Amphetamine/chlordiazepoxide hyperactivity model of mania, open field locomotor activity. As to conditions: 5-ING-135 50 mg/kg, 5 min pretreatment; amphetamine 4 mg/kg + chlordiazepoxide 2.5 mg/kg; 60 min. It counts as in vivo. How it is done:
Hyperactivity models are often used to mimic the mania associated with bipolar disorder.
Certain benzofuran-based ligands of this invention were studied in a novel mouse model of mania that has recently been validated with several clinically effective mood stabilizers. […] Mice were then injected with amphetamine (4 mg/kg) or amphetamine (4 mg/kg) and chlordiazepoxide (2.5 mg/kg) and locomotor activity was monitored for 60 min. The open field is a square box surrounded by an array of infra-red beams and their behavior is automatically recorded for 60 minutes in the open field test chamber (10.75″×10.75″×8″H with infra-red (I/R) array, model ENV 510, MED Associates). After this period the animals were returned to their home cages and then to the main colony.
Control treatments are as indicated. FIG. 1B illustrates similar locomotion activity data of treated mice measured in cm over 5 minute intervals for 60 minutes.

Test [3] has as its system pancreatic cancer cell lines. Put plainly: Proliferation and survival of pancreatic cancer cells (overall statements). It counts as cell-based. The method, then: as §2
A further test relates to mice. The following applies: Hanania et al. 2005, Brody et al. 2003; cited from earlier work.
The mark [4] stands for this setting: MIA PaCa-2, as reported in Gaisina et al. (2009) J. Med. Chem. 52(7), 1853-1863.
The mark [5] stands for this setting: HuP-T3, as reported in Gaisina et al. (2009) J. Med. Chem. 52(7), 1853-1863.

A word on the IC50: it is the midpoint of a concentration-inhibition curve. The inhibition is the drop in the measured response relative to a control, in per cent.

A value given as a limit tells only on which side of the number the result lay.

Chain of PKCβ2 (P05771 1-673 isoform P05771-2): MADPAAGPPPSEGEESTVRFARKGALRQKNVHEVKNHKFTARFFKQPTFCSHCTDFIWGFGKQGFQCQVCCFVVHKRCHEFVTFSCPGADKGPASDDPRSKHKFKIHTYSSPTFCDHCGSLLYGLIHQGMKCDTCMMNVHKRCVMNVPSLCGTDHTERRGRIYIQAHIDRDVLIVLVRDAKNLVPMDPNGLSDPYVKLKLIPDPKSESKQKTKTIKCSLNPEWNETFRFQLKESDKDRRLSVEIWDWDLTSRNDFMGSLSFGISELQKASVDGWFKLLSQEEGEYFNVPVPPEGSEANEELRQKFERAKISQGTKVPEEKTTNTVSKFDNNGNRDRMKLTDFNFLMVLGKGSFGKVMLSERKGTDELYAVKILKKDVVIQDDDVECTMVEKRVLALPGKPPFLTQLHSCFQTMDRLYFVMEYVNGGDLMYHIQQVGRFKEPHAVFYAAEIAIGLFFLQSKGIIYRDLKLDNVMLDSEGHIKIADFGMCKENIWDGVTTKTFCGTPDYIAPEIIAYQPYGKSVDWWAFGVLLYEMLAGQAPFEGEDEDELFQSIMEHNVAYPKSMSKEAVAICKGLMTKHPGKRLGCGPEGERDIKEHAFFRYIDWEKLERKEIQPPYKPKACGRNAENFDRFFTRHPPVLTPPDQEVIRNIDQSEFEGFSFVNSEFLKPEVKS

`COc1ccc(CNC(=O)Nc2ncc([N+](=O)[O-])s2)cc1` [AR-A014418, reference compound]: the IC50 with MIAPaCa-2 (setting [4]) worked out at 29 ± 1.7 µM; with MIAPaCa-2 (MIA PaCa-2, 72 hrs, MTS), 25 µM; in the test on BXPC-3, 14 ± 0.6 µM; in the test with HupT3 (setting [5]), 22 ± 2.1 µM. The “Pancreatic cancer cell proliferation, reference compounds” value in test [1] is given as “significant decrease in pancreatic cancer cell proliferation”.

For `COc1cccc2c(C3=C(c4cn(C)c5cc(I)c(F)cc45)C(=O)NC3=O)coc12` [Compound 10, 3-(5-Fluoro-6-iodo-1-methyl-1H-indol-3-yl)-4-(7-methoxy-benzofuran-3-yl)-pyrrole-2,5-dione], the IC50 in [2] stood at 247 ± 28 nM. Moreover, the inhibition at 1 µM is 9% at CDK2, 60% on GSK3α, -1% at PDK1 and 2% on PKCβ2. Moreover, the inhibition at 10 µM came to 35% at CDK2, 95% against GSK3α, 6% on PDK1 and 15% against PKCβ2. In addition, the “GSK-3β activity in pancreatic cancer cells (phosphorylation of glycogen synthase)” value (shortened to “GSK-3β activity”) in the test on GSK-3β was “effectively inhibited GSK-3β activity”. The “NFκB-mediated expression of XIAP” value in the test on XIAP was “pronounced decrease in NFκB-mediated expression of XIAP”.

For the molecule `Cn1cc(C2=C(c3coc4cc(CO)ccc34)C(=O)NC2=O)c2cc(Br)ccc21` [Compound 22, 3-(5-Bromo-1-methyl-1H-indol-3-yl)-4-(6-hydroxymethyl-benzofuran-3-yl)-pyrrole-2,5-dione], the IC50 at CDK-2/cyclinE was 337 nM; on CDK-1/cyclinB, 0.93 µM; at CDK-2/cyclinA, 0.55 µM; at CDK-4/cyclinD1, 1.08 µM; against CDK-6/cyclinD3, 0.51 µM; in the test with OVCA432 it was 14.2 µM. In addition, in the test with SKOV3, 51.5 µM corresponded to half-maximal inhibition (IC50).

In the case of `Cn1cc(C2=C(c3coc4ccccc34)C(=O)NC2=O)c2cc(I)ccc21` [Compound 28, 3-Benzofuran-3-yl-4-(5-iodo-1-methyl-1H-indol-3-yl)-pyrrole-2,5-dione], the IC50 in [2] was 15.5 ± 3.5 nM; on CDK-2/cyclinE it was 1070 nM; with HupT3 (setting [5]) it was more than 50 µM; with HupT3 (HuP-T3, 72 hrs, MTS), more than 50 µM; in the test with OVCA432, 20 µM; in the test on SKOV3, 26.7 µM.

For `C#Cc1ccc2c(c1)c(C1=C(c3coc4ccccc34)C(=O)NC1=O)cn2C` [Compound 36, 3-Benzofuran-3-yl-4-(5-ethynyl-1-methyl-1H-indol-3-yl)-pyrrole-2,5-dione], the IC50 in test [2] is 9.6 ± 4 nM; in the test on MIAPaCa-2 (MIA PaCa-2, 72 hrs, MTS) it was more than 50 µM. The inhibition at 1 µM at CDK2 is 68%; against GSK3α, 89%; against PDK1 it was 14%; on PKCβ2, 24%. Moreover, the inhibition at 10 µM against CDK2 is 100%; against GSK3α, 100%; on PDK1 it was 27%; at PKCβ2, 74%. Moreover, the “Inhibition of hyperactivity produced by amphetamine/chlordiazepoxide (locomotor activity)” value with C57BL/6J mice is reported as “exhibited inhibition of the hyperactivity”.

`Cn1cc(C2=C(c3coc4ccc(F)cc34)C(=O)NC2=O)c2cc3c(cc21)OCO3` [Compound 40, 3-(5-Fluoro-benzofuran-3-yl)-4-(5-methyl-5H-[1,3]dioxolo[4,5-f]indol-7-yl)-pyrrole-2,5-dione]: the IC50 is 708 ± 156 nM in test [2], 11.2 µM with OVCA432 and 10.5 µM in the test with SKOV3. In the test on GSK-3β, the “GSK-3β activity” value is given as “effectively inhibited GSK-3β activity”. Moreover, the “NFκB-mediated expression of XIAP” value in the test on XIAP is given as “pronounced decrease in NFκB-mediated expression of XIAP”.

Take `COc1cc2c(C3=C(c4coc5ccccc45)C(=O)NC3=O)cn(C)c2cc1Cl` [Compound 42, 3-Benzofuran-3-yl-4-(6-chloro-5-methoxy-1-methyl-1H-indol-3-yl)-pyrrole-2,5-dione]: the IC50 in [2] was 440 ± 22 nM; with MIAPaCa-2 (MIA PaCa-2, 72 hrs, MTS), more than 50 µM. The “GSK-3β activity” value in the test on GSK-3β is “did not affect GSK-3β activity”. The “Proliferation and survival of pancreatic cancer cells” value in test [3] is “did not affect GSK-3β activity, proliferation or survival”.

For the molecule `Cn1cc(C2=C(c3coc4ccc(F)cc34)C(=O)NC2=O)c2ccc(O)cc21` [Compound 46, 3-(5-Fluoro-benzofuran-3-yl)-4-(6-hydroxy-1-methyl-1H-indol-3-yl)-pyrrole-2,5-dione], the IC50 in [2] came out at 14 ± 3 nM. For the same molecule, the “Inhibition of hyperactivity produced by amphetamine/chlordiazepoxide (locomotor activity)” value in the test on C57BL/6J mice is “exhibited inhibition of the hyperactivity”.

Turning to `Cn1cc(C2=C(c3ccc(Cl)cc3Cl)C(=O)NC2=O)c2ccccc21` [SB216763, reference compound], the IC50 amounted to 25 ± 0.9 µM with MIAPaCa-2 (setting [4]) and 25 µM in the test on MIAPaCa-2 (MIA PaCa-2, 72 hrs, MTS). The “Pancreatic cancer cell proliferation, reference compounds” value in test [1] is given as “significant decrease in pancreatic cancer cell proliferation”.

For the molecule `CCCC(CCC)C(=O)O` [valporate], the “Sensorimotor gating (prepulse inhibition)” value in the test on mice is “improve sensorimotor gating”.
